Assay [1] deals with T1, PglH (Campylobacter jejuni, UniProt Q0P9C5).
T1 construct: PglH with C-terminal His10 tag
In words: ([…] Å); IC50 with purified PglH. Type of assay: biochemical.

For assay [2], the target named is T1, PglH. In words: crystal structure of ternary complex with synthetic LLO ([…] Å); IC50 with purified PglH. The format is biochemical.

Results on two molecules are retold here after paper PMC5792488, “Structural basis of the molecular ruler mechanism of a bacterial glycosyltransferase” (Nature Communications, 2018).

Broadly, the IC50 is the concentration needed to halve the response being measured. Low readings indicate higher potency, high ones lower potency.

T1 sequence (Q0P9C5 whole entry): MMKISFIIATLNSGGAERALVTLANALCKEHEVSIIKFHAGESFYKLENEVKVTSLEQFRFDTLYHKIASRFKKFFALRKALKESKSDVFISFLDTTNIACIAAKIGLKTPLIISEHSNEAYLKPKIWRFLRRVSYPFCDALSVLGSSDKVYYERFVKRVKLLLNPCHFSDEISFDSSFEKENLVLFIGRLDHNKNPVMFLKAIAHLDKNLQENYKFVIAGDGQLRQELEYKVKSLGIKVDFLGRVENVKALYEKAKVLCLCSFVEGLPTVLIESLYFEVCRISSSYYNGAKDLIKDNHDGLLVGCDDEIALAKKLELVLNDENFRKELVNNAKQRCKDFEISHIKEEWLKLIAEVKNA

On PglH [1], `CC(=O)N[C@@H]1[C@@H](O)[C@@H](O)[C@@H](CO)O[C@@H]1CP(=O)(O)OP(=O)(O)OC[C@@H]1O[C@@H](n2ccc(=O)[nH]c2=O)[C@H](O)[C@@H]1O` [UDP-CH2-GalNAc] showed an IC50 of 303 ± 24 µM. Take `O=c1ccn([C@@H]2O[C@H](COP(=O)(O)OP(=O)(O)O)[C@@H](O)[C@H]2O)c(=O)[nH]1` [UDP]: 1020 ± 87 µM corresponded to half-maximal inhibition at PglH [2] (IC50).
